Usually DC50 stands for the midpoint of the concentration-degradation curve.

Structures can show the parent of a compound that is named as a salt.

The assay has as its target T1, AR (Homo sapiens, UniProt P10275).
T1 construct: endogenous in cells; host or cells: VCaP cells
T1 sequence (P10275 1-920): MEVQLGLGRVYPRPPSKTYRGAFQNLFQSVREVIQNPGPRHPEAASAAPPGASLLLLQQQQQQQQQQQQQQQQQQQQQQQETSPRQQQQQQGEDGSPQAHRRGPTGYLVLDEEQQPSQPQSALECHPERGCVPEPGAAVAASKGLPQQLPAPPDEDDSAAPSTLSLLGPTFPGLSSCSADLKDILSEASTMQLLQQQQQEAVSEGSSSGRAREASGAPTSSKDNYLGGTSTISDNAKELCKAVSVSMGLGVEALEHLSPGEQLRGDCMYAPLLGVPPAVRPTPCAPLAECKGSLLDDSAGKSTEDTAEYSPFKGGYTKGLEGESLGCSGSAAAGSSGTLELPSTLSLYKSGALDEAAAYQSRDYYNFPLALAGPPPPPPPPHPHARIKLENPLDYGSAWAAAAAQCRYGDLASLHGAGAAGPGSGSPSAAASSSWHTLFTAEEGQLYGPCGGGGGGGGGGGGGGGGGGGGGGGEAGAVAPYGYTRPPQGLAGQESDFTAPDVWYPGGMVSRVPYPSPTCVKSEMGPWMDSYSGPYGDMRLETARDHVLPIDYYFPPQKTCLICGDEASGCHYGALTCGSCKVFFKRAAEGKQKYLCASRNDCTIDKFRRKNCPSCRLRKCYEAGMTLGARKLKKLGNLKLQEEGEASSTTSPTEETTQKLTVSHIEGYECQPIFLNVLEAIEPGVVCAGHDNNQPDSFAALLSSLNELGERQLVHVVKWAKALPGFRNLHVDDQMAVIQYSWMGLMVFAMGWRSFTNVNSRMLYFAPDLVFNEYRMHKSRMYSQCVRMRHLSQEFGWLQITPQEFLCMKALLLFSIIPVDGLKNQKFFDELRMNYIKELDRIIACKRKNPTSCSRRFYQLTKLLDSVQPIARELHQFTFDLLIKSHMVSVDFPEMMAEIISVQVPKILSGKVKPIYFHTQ
The assay is described as follows: VCAP AR Degradation Assay. Conditions: for Y (AR degradation efficiency, % of DMSO control): class symbols *; for DC50: class symbols A-C, read-out: DC50. The format is cell-based. As for the experimental part:
VCAP AR Degradation Assay. Test compounds were pre-dispensed into a Corning CellBind 96-well clear bottom plate (Cat #3300) using an acoustic dispenser to make a 10-point concentration series at 1:3 dilution for each compound. The final top concentration of each compound was 5 μM. DMSO at a final concentration of 0.1% was used as a control. VCaP cells cultured in DMEM with 8% fetal bovine serum (FBS) were seeded at 50K cells per well in a 200 μL volume into the compound plate and incubated at 37° C. in a CO2 incubator for 24 h. The medium was carefully removed from the cells and the plate was placed on ice. One hundred μL of ice-cold 1x cell lysis buffer from Cell Signaling Technologies (Cat #9803) was added to each well of the cells and the plate was incubated at 4° C. on a shaker for 1 h. Fifteen μL of cell lysate was used for AR ELISA detection using a PathScan Total Sandwich AR ELISA kit (Cell Signaling Technology, Cat #12580). AR levels in compound-treated wells were normalized to that of DMSO control and expressed as percent of control (PoC) (y). A Four Parameter Logistic Model (Sigmoidal Dose-Response Model) was used to determine the compound's DC50, and EC50, using the following equation:
[formula] • A=YMin (lowest AR level normalized to DMSO control in response to compound treatment, as determined by curve fit) • B=YMax (maximum AR level as determined by curve fit) • C=EC50 • D=Hill Slope • x=compound concentration • EC50=the concentration of compound when y=(YMax−YMin)/2 • DC50=the concentration of the compound when y=50% of DMSO control (50% AR degradation) • y=AR protein level normalized to DMSO control
The lowest measured AR level normalized to DMSO control in response to compound treatment, termed Y value, was used to characterize the compound-mediated AR degradation efficiency.

Consider `CC1(C)C(=O)N(c2ccc(C#N)c(C(F)(F)F)c2)C(=S)N1c1ccc(OCCN2CCN(CC(=O)Nc3cccc(NC4CCC(=O)NC4=O)c3)CC2)c(C(F)(F)F)c1` (stereo not shown) [Example 12, hydrochloride], for which the “Y (AR degradation efficiency, % of DMSO control)” value is given as “*** (35%<Y<50%)” and the DC50 was in the range of 0.1 to 0.5 µM.

`Cc1cc(OCCN2CCN(CC(=O)Nc3cccc(NC4CCC(=O)NC4=O)c3)CC2)c(F)cc1N1C(=S)N(c2ccc(C#N)c(C(F)(F)F)c2)C(=O)C1(C)C` (stereo not shown) [Example 13, hydrochloride]: the “Y (AR degradation efficiency, % of DMSO control)” value is “*** (35%<Y<50%)” and the DC50 is less than 0.1 µM.

`CC1(C)C(=O)N(c2cnc(C#N)c(C(F)(F)F)c2)C(=S)N1c1ccc(OCCN2CCN(CC(=O)Nc3cc(Cl)cc(NC4CCC(=O)NC4=O)c3)CC2)c(Cl)c1` (stereo not shown) [Example 14, hydrochloride]: the “Y (AR degradation efficiency, % of DMSO control)” value was “* (0<Y<=25%)” and the DC50 is less than 0.1 µM.

As to `Cc1cc(NC(=O)CN2CCN(CCOc3ccc(N4C(=S)N(c5ccc(C#N)c(C(F)(F)F)c5)C(=O)C4(C)C)cc3F)CC2)cc(NC2CCC(=O)NC2=O)c1` (stereo not shown) [Example 15, hydrochloride], the “Y (AR degradation efficiency, % of DMSO control)” value is listed as “** (25%<Y<=35%)” and the DC50 is less than 0.1 µM.

As to `CC(C)c1cc(N2C(=S)N(c3ccc(C#N)c(C(F)(F)F)c3)C(=O)C2(C)C)ccc1OCCN1CCN(CC(=O)Nc2cccc(NC3CCC(=O)NC3=O)c2)CC1` (stereo not shown) [Example 17, hydrochloride], the “Y (AR degradation efficiency, % of DMSO control)” value is recorded as “* (0<Y<=25%)” and the DC50 is less than 0.1 µM.

For the compound `CC(C)Cc1cc(N2C(=S)N(c3ccc(C#N)c(C(F)(F)F)c3)C(=O)C2(C)C)ccc1OCCN1CCN(CC(=O)Nc2cccc(NC3CCC(=O)NC3=O)c2)CC1` (stereo not shown) [Example 18], the “Y (AR degradation efficiency, % of DMSO control)” value is given as “* (0<Y<=25%)” and the DC50 was less than 0.1 µM.

As to `CC1(C)C(=O)N(c2ccc(C#N)c(C(F)(F)F)c2)C(=S)N1c1ccc(OCCN2CCN(CC(=O)Nc3cc(F)cc(NC4CCC(=O)NC4=O)c3)CC2)c(F)c1` (stereo not shown) [Example 19, formate], the “Y (AR degradation efficiency, % of DMSO control)” value is listed as “* (0<Y<=25%)” and the DC50 is less than 0.1 µM.

In the case of `CC1(C)C(=O)N(c2ccc(C#N)c(C(F)(F)F)c2)C(=S)N1c1ccc(OCCN2CCN(CC(=O)Nc3cc(NC4CCC(=O)NC4=O)ccc3Cl)CC2)c(Cl)c1` (stereo not shown) [Example 20, hydrochloride], the “Y (AR degradation efficiency, % of DMSO control)” value is “* (0<Y<=25%)” and the DC50 is less than 0.1 µM.

Consider `C[C@@H](C(=O)Nc1cccc(NC2CCC(=O)NC2=O)c1)N1CCN(CCOc2ccc(N3C(=S)N(c4ccc(C#N)c(C(F)(F)F)c4)C(=O)C3(C)C)cc2Cl)CC1` (stereo partly shown) [Example 21, hydrochloride], for which the “Y (AR degradation efficiency, % of DMSO control)” value is recorded as “* (0<Y<=25%)” and the DC50 is less than 0.1 µM.

As for `CCc1cc(N2C(=S)N(c3cnc(C#N)c(C(F)(F)F)c3)C(=O)C2(C)C)ccc1OCCN1CCN(CC(=O)Nc2cccc(NC3CCC(=O)NC3=O)c2)CC1` (stereo not shown) [Example 22, hydrochloride], the “Y (AR degradation efficiency, % of DMSO control)” value was “* (0<Y<=25%)” and the DC50 was less than 0.1 µM.

In the case of `CC1(C)C(=O)N(c2cnc(C#N)c(C(F)(F)F)c2)C(=S)N1c1ccc(OCCN2CCN(CC(=O)Nc3cc(Cl)cc(NC4CCC(=O)NC4=O)c3)CC2)cc1` (stereo not shown) [Example 24, 2-(4-(2-(4-(3-(6-cyano-5-(trifluoromethyl)pyridin-3-yl)-5,5-dimethyl-4-oxo-2-thioxoimidazolidin-1-yl)-2-ethylphenoxy)ethyl)-2,2-dimethylpiperazin-1-yl)-N-(3-((2,6-dioxopiperidin-3-yl)amino)-5-fluorophenyl)acetamide hydrochoride], the “Y (AR degradation efficiency, % of DMSO control)” value is reported as “* (0<Y<=25%)” and the DC50 was less than 0.1 µM.

Turning to `C[C@H](C(=O)Nc1cccc(NC2CCC(=O)NC2=O)c1)N1CCN(CCOc2ccc(N3C(=S)N(c4ccc(C#N)c(C(F)(F)F)c4)C(=O)C3(C)C)cc2Cl)CC1` (stereo partly shown) [Example 25, hydrochloride], the “Y (AR degradation efficiency, % of DMSO control)” value is “*** (35%<Y<50%)” and the DC50 was less than 0.1 µM.

Turning to `CCc1cc(N2C(=S)N(c3ccc(C#N)c(C(F)(F)F)c3)C(=O)C2(C)C)ccc1OCCN1CCN(CC(=O)Nc2cccc(N[C@H]3CCC(=O)NC3=O)c2)CC1` [Example 27, hydrochloride], the “Y (AR degradation efficiency, % of DMSO control)” value was “* (0<Y<=25%)” and the DC50 is less than 0.1 µM.

For `CCc1cc(N2C(=S)N(c3ccc(C#N)c(C(F)(F)F)c3)C(=O)C2(C)C)ccc1OCCN1CCN(CC(=O)Nc2cccc(N[C@@H]3CCC(=O)NC3=O)c2)CC1` [Example 28, hydrochloride], the “Y (AR degradation efficiency, % of DMSO control)” value is given as “* (0<Y<=25%)” and the DC50 is less than 0.1 µM.

As to `CCC(C)c1cc(N2C(=S)N(c3ccc(C#N)c(C(F)(F)F)c3)C(=O)C2(C)C)ccc1OCCN1CCN(CC(=O)Nc2cccc(NC3CCC(=O)NC3=O)c2)CC1` (stereo not shown) [Example 29, hydrochloride], the “Y (AR degradation efficiency, % of DMSO control)” value is given as “** (25%<Y<=35%)” and the DC50 was 0.5 to 1 µM.

As for `CC1(C)C(=O)N(c2ccc(C#N)c(C(F)(F)F)c2)C(=S)N1c1ccc(OCCN2CCN(CC(=O)Nc3cc(Cl)cc(NC4CCC(=O)NC4=O)c3)CC2)c(C2CC2)c1` (stereo not shown) [Example 30, hydrochloride], the “Y (AR degradation efficiency, % of DMSO control)” value was “* (0<Y<=25%)” and the DC50 is less than 0.1 µM.

In the case of `CC1(C)C(=O)N(c2ccc(C#N)c(C(F)(F)F)c2)C(=S)N1c1ccc(OCCN2CCN(CC(=O)Nc3cccc(NC4CCC(=O)NC4=O)c3)CC2)c(C2CCC2)c1` (stereo not shown) [Example 31, trifluoroacetate], the “Y (AR degradation efficiency, % of DMSO control)” value is reported as “* (0<Y<=25%)” and the DC50 was less than 0.1 µM.

`CCCc1cc(N2C(=S)N(c3ccc(C#N)c(C(F)(F)F)c3)C(=O)C2(C)C)ccc1OCCN1CCN(CC(=O)Nc2cccc(NC3CCC(=O)NC3=O)c2)CC1` (stereo not shown) [Example 34, hydrochloride]: the “Y (AR degradation efficiency, % of DMSO control)” value is on record as “* (0<Y<=25%)” and the DC50 was less than 0.1 µM.

With `CCc1cc(N2C(=S)N(c3ccc(C#N)c(C(F)(F)F)c3)C(=O)C2(C)C)ccc1OCCN1CCN(CC(=O)Nc2cccc(NC3CCC(=O)NC3=O)c2Cl)CC1` (stereo not shown) [Example 35, hydrochloride], the “Y (AR degradation efficiency, % of DMSO control)” value is given as “** (25%<Y<=35%)” and the DC50 lay in the range of 0.1 to 0.5 µM.

For `CC1(C)C(=O)N(c2cnc(C#N)c(C(F)(F)F)c2)C(=S)N1c1ccc(OCCN2CCN(CC(=O)Nc3cccc(NC4CCC(=O)NC4=O)c3)CC2)c(C2CCC2)c1` (stereo not shown) [Example 36, trifluoroacetate], the “Y (AR degradation efficiency, % of DMSO control)” value is “* (0<Y<=25%)” and the half-maximal degradation concentration (DC50) is less than 0.1 µM.

With `CCC(C)c1cc(N2C(=S)N(c3cnc(C#N)c(C(F)(F)F)c3)C(=O)C2(C)C)ccc1OCCN1CCN(CC(=O)Nc2cccc(NC3CCC(=O)NC3=O)c2)CC1` (stereo not shown) [Example 37, hydrochloride], the “Y (AR degradation efficiency, % of DMSO control)” value is reported as “*** (35%<Y<50%)” and the DC50 is 0.5 to 1 µM.

On to `CCCc1cc(N2C(=S)N(c3cnc(C#N)c(C(F)(F)F)c3)C(=O)C2(C)C)ccc1OCCN1CCN(CC(=O)Nc2cccc(NC3CCC(=O)NC3=O)c2)CC1` (stereo not shown) [Example 38, hydrochloride], for which the “Y (AR degradation efficiency, % of DMSO control)” value is “* (0<Y<=25%)” and the DC50 is less than 0.1 µM.

Regarding `CC1(C)C(=O)N(c2ccc(C#N)c(C(F)(F)F)c2)C(=S)N1c1ccc(OCCN2CCN(CC(=O)Nc3cccc(NC4CCC(=O)NC4=O)c3)CC2)c(C2CCCC2)c1` (stereo not shown) [Example 39, hydrochloride], the “Y (AR degradation efficiency, % of DMSO control)” value is “** (25%<Y<=35%)” and the DC50 lay in the range of 0.1 to 0.5 µM.

(Values after patent US12404241B2 (Celgene Corporation, priority 2018, dated 2025).)
